# Data taken from PubChem BioAssay AID1963976 (Molecular Pharmacology Branch, DTP, NCI, 2024).
# Test system: 435261-313-R-J1-PDC tumor spheroid viability
# Experiment: Anticancer human tumor 435261-313-R-J1-PDC patient-derived colon adenocarcinoma cell line growth inhibition [PI3K]
# Details: spheroids with HUVEC and MSC; for IC50: curve of first compound; for viability, T/C: stronger effect = lower value
# In short: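 Spheroid viability read-out. Co-cultures contained the tumor line plus HUVEC and human MSCs. Each agent was paired with a PI3K inhibitor (inavolisib, alpelisib, duvelisib, copanlisib) across half-log dilutions starting at clinical Cmax, or at 10 microM when Cmax was unknown.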
# [1] = second compound 0.0316 µM, first compound 0.0316 µM
# [2] = second compound 0.0316 µM, first compound 0.1 µM
# [3] = second compound 0.0316 µM, first compound 0.316 µM
# [4] = second compound 0.0316 µM, first compound 1 µM
# [5] = second compound 0.1 µM, first compound 0.0316 µM
# [6] = second compound 0.1 µM, first compound 0.1 µM
# [7] = second compound 0.1 µM, first compound 0.316 µM
# [8] = second compound 0.1 µM, first compound 1 µM
# [9] = second compound 0.316 µM, first compound 0.0316 µM
# [10] = second compound 0.316 µM, first compound 0.1 µM
# [11] = second compound 0.316 µM, first compound 0.316 µM
# [12] = second compound 0.316 µM, first compound 1 µM
# [13] = second compound 1 µM, first compound 0.0316 µM
# [14] = second compound 1 µM, first compound 0.1 µM
# [15] = second compound 1 µM, first compound 0.316 µM
# [16] = second compound 1 µM, first compound 1 µM
# [17] = second compound 0.0316 µM, first compound 0.00316 µM
# [18] = second compound 0.0316 µM, first compound 0.01 µM
# [19] = second compound 0.1 µM, first compound 0.00316 µM
# [20] = second compound 0.1 µM, first compound 0.01 µM
# [21] = second compound 0.316 µM, first compound 0.00316 µM
# [22] = second compound 0.316 µM, first compound 0.01 µM
# [23] = second compound 1 µM, first compound 0.00316 µM
# [24] = second compound 1 µM, first compound 0.01 µM
# [25] = second compound 3.16 µM, first compound 0.00316 µM
# [26] = second compound 3.16 µM, first compound 0.01 µM
# [27] = second compound 3.16 µM, first compound 0.0316 µM
# [28] = second compound 3.16 µM, first compound 0.1 µM
# [29] = second compound 10 µM, first compound 0.00316 µM
# [30] = second compound 10 µM, first compound 0.01 µM
# [31] = second compound 10 µM, first compound 0.0316 µM
# [32] = second compound 10 µM, first compound 0.1 µM
# 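Further: spheroids exposed to compounds for 7 days.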
smiles,measurement,setting,value
CNC(=O)c1ccc(N2C(=S)N(c3ccc(C#N)c(C(F)(F)F)c3)C(=O)C2(C)C)cc1F + CC(Nc1ccc2c(c1)OCCn1cc(N3C(=O)OCC3C(F)F)nc1-2)C(N)=O,IC50,second compound 0.00316 µM,> 10000 nM
same,IC50,second compound 0.01 µM,> 10000 nM
same,IC50,second compound 0.0316 µM,> 10000 nM
same,IC50,second compound 0.1 µM,< 31.6 nM
same,IC50,second compound 0.316 µM,< 31.6 nM
same,IC50,second compound 1 µM,< 31.6 nM
same,"viability, T/C","second compound 0.00316 µM, first compound 0.0316 µM",73.1%
same,"viability, T/C","second compound 0.00316 µM, first compound 0.1 µM",95.5%
same,"viability, T/C","second compound 0.00316 µM, first compound 0.316 µM",74.7%
same,"viability, T/C","second compound 0.00316 µM, first compound 1 µM",101%
same,"viability, T/C","second compound 0.00316 µM, first compound 3.16 µM",106%
same,"viability, T/C","second compound 0.00316 µM, first compound 10 µM",93.2%
same,"viability, T/C","second compound 0.01 µM, first compound 0.0316 µM",81.7%
same,"viability, T/C","second compound 0.01 µM, first compound 0.1 µM",92.6%
same,"viability, T/C","second compound 0.01 µM, first compound 0.316 µM",77.2%
same,"viability, T/C","second compound 0.01 µM, first compound 1 µM",96%
same,"viability, T/C","second compound 0.01 µM, first compound 3.16 µM",141%
same,"viability, T/C","second compound 0.01 µM, first compound 10 µM",123%
same,"viability, T/C",[1],69.8%
same,"viability, T/C",[2],77.3%
same,"viability, T/C",[3],57.7%
same,"viability, T/C",[4],82.9%
same,"viability, T/C","second compound 0.0316 µM, first compound 3.16 µM",84.6%
same,"viability, T/C","second compound 0.0316 µM, first compound 10 µM",68.2%
same,"viability, T/C",[5],48.9%
same,"viability, T/C",[6],28.5%
same,"viability, T/C",[7],44.9%
same,"viability, T/C",[8],51.9%
same,"viability, T/C","second compound 0.1 µM, first compound 3.16 µM",36.8%
same,"viability, T/C","second compound 0.1 µM, first compound 10 µM",29.6%
same,"viability, T/C",[9],22.3%
same,"viability, T/C",[10],19.2%
same,"viability, T/C",[11],15.5%
same,"viability, T/C",[12],24.6%
same,"viability, T/C","second compound 0.316 µM, first compound 3.16 µM",24%
same,"viability, T/C","second compound 0.316 µM, first compound 10 µM",17.5%
same,"viability, T/C",[13],15.5%
same,"viability, T/C",[14],15.6%
same,"viability, T/C",[15],15.3%
same,"viability, T/C",[16],15.2%
same,"viability, T/C","second compound 1 µM, first compound 3.16 µM",18.8%
same,"viability, T/C","second compound 1 µM, first compound 10 µM",12.8%
Cn1ncnc1[C@H]1c2n[nH]c(=O)c3cc(F)cc(c23)N[C@@H]1c1ccc(F)cc1 + Cc1nc(NC(=O)N2CCCC2C(N)=O)sc1-c1ccnc(C(C)(C)C(F)(F)F)c1,IC50,second compound 0.0316 µM,> 100 nM
same,IC50,second compound 0.1 µM,> 100 nM
same,IC50,second compound 0.316 µM,6.18 nM
same,IC50,second compound 1 µM,< 0.316 nM
same,IC50,second compound 3.16 µM,< 0.316 nM
same,IC50,second compound 10 µM,< 0.316 nM
same,"viability, T/C","second compound 0.0316 µM, first compound 0.000316 µM",81.6%
same,"viability, T/C","second compound 0.0316 µM, first compound 0.001 µM",65%
same,"viability, T/C",[17],79.8%
same,"viability, T/C",[18],77.1%
same,"viability, T/C",[1],79.1%
same,"viability, T/C",[2],66.4%
same,"viability, T/C","second compound 0.1 µM, first compound 0.000316 µM",63%
same,"viability, T/C","second compound 0.1 µM, first compound 0.001 µM",93.9%
same,"viability, T/C",[19],65.5%
same,"viability, T/C",[20],64.8%
same,"viability, T/C",[5],66.4%
same,"viability, T/C",[6],56.3%
same,"viability, T/C","second compound 0.316 µM, first compound 0.000316 µM",35.8%
same,"viability, T/C","second compound 0.316 µM, first compound 0.001 µM",62.8%
same,"viability, T/C",[21],49.4%
same,"viability, T/C",[22],59.8%
same,"viability, T/C",[9],39.4%
same,"viability, T/C",[10],36.6%
same,"viability, T/C","second compound 1 µM, first compound 0.000316 µM",36.5%
same,"viability, T/C","second compound 1 µM, first compound 0.001 µM",29.8%
same,"viability, T/C",[23],24.6%
same,"viability, T/C",[24],30.5%
same,"viability, T/C",[13],26.9%
same,"viability, T/C",[14],22.8%
same,"viability, T/C","second compound 3.16 µM, first compound 0.000316 µM",16.4%
same,"viability, T/C","second compound 3.16 µM, first compound 0.001 µM",21.4%
same,"viability, T/C",[25],17.5%
same,"viability, T/C",[26],18.5%
same,"viability, T/C",[27],18.4%
same,"viability, T/C",[28],16.7%
same,"viability, T/C","second compound 10 µM, first compound 0.000316 µM",10.5%
same,"viability, T/C","second compound 10 µM, first compound 0.001 µM",9.23%
same,"viability, T/C",[29],7.91%
same,"viability, T/C",[30],9.55%
same,"viability, T/C",[31],9%
same,"viability, T/C",[32],7.58%
CCN1CCN(Cc2ccc(Nc3ncc(F)c(-c4cc(F)c5nc(C)n(C(C)C)c5c4)n3)nc2)CC1 + CC(Nc1ncnc2nc[nH]c12)c1cc2cccc(Cl)c2c(=O)n1-c1ccccc1,IC50,second compound 0.0316 µM,> 1000 nM
same,IC50,second compound 0.1 µM,> 1000 nM
same,IC50,second compound 0.316 µM,> 1000 nM
same,IC50,second compound 1 µM,222 nM
same,IC50,second compound 3.16 µM,20.8 nM
same,IC50,second compound 10 µM,< 3.16 nM
same,"viability, T/C",[17],97.8%
same,"viability, T/C",[18],81.8%
same,"viability, T/C",[1],63.5%
same,"viability, T/C",[2],60.1%
same,"viability, T/C",[3],54.7%
same,"viability, T/C",[4],51.6%
same,"viability, T/C",[19],73.2%
same,"viability, T/C",[20],82.4%
same,"viability, T/C",[5],99.5%
same,"viability, T/C",[6],54.3%
same,"viability, T/C",[7],48.6%
same,"viability, T/C",[8],60.4%
same,"viability, T/C",[21],99.1%
same,"viability, T/C",[22],110%
same,"viability, T/C",[9],74.2%
same,"viability, T/C",[10],61.9%
same,"viability, T/C",[11],46.6%
same,"viability, T/C",[12],54.5%
same,"viability, T/C",[23],96%
same,"viability, T/C",[24],85.3%
same,"viability, T/C",[13],59.7%
same,"viability, T/C",[14],50.3%
same,"viability, T/C",[15],44.9%
same,"viability, T/C",[16],54.6%
same,"viability, T/C",[25],92.2%
same,"viability, T/C",[26],62%
same,"viability, T/C",[27],43.9%
same,"viability, T/C",[28],36.1%
same,"viability, T/C","second compound 3.16 µM, first compound 0.316 µM",42.1%
same,"viability, T/C","second compound 3.16 µM, first compound 1 µM",37.7%
same,"viability, T/C",[29],43.8%
same,"viability, T/C",[30],42.4%
same,"viability, T/C",[31],32.5%
same,"viability, T/C",[32],30.7%
same,"viability, T/C","second compound 10 µM, first compound 0.316 µM",30.4%
same,"viability, T/C","second compound 10 µM, first compound 1 µM",34.6%
